This is an account of results in US9567301B2, “Pyrrol-1-yl benzoic acid derivatives useful as myc inhibitors” (Whitehead Institute for Biomedical Research, priority 2012, dated 2017).

One test relates to MM1S cells. The experiment in a line: Cell viability assay (ATPlite), MM1S. The format is cell-based, human. To be noted: for EC50: cell viability, three days, ATPlite, NA: inactive under assay conditions. The method, then: (§1) This assay was used for the H2171 and MM1S cell data shown in Table 2, and for the Jurkat (an immortalized line of human T lymphocyte cells), Ly1 (OCI-Ly1 human non-Hodgkin lymphoma cell line), Ly4 (OCI-Ly4 human non-Hodgkin lymphoma cell line), H2172 (NCI-H2172 human non-small cell lung cancer cell line), and CA-46 (a human Burkitt's lymphoma cell line) cell data shown in Table 3 and FIG. 12. Cells were counted and adjusted to 60,000 cells/mL. Using a Biotek EL406, 50 μL of cells are media were distributed into 384 well white plates from Thermo. Immediately after plating, compound in DMSO was distributed to plates. For large plate sets, cells were returned to 37° C. incubator while not in use.
(§2) Compounds were added to plates using a 100 nL 384 well pin transfer manifold on a Janus workstation. Stocks were arrayed in 10 point quadruplicate dose response in DMSO stock in 384 well Greiner compound plates. After addition of compound, plates were incubated for three days in a 37° C. incubator.
(§3) Cell viability was read out using ATPlite from Perkin Elmer. Plates were removed from the incubator and brought to room temperature prior to use. Lyophilized powder was resuspended in lysis buffer and diluted 1:2 with DI water. 25 μL of this solution was added to each well using the Biotek liquid handler. Plates were sealed with adherent aluminum seals prior to vortexing and spinning down at 1000 g for 1 minute. Plates were incubated for 15 minutes at room temperature before signal was read on an Envision Plate Reader.

The test system of the next test is H2171 cells. Kind of test: Cell viability assay (ATPlite), H2171. Type of test: cell-based, human. The settings on record: cell viability, three days, ATPlite, NA: inactive under assay conditions. The method, then:
as §1, §2, §3
For orientation: In ATP-based viability assays light output follows the ATP content of the culture.

The next test concerns the target c-Myc/Max/Ebox DNA (Homo sapiens, UniProt P01106). The experiment in a line: c-Myc/Max/Ebox DNA AlphaScreen assay. Type of test: binding. Set-up: An exemplary assay uses full-length human c-Myc and Max proteins; his6 (cleaved yes); made in house. The settings on record: c-Myc/Max/Ebox DNA AlphaScreen; NA: inactive under assay conditions; read-out: Biochemical IC50. As for the experimental part:
This protocol was used to generate the biochemical data in Table 2 and FIG. 11. The primary AlphaScreen assay is amenable to 384-well and 1536-well plate formats for HTS. Human his6-c-Myc and his6-Max were used with biotinylated DNA containing a single Ebox sequence (biotin[…]) purchased from MWG Operon. Free c-Myc was generated from his6-c-Myc through thrombin cleavage of the his6 tag. For 384-well plate assays, 10 μL of a 2× solution of free c-Myc (25 nM final), Ni++-coated Acceptor Bead (25 μg/ml final), and biotinylated Ebox oligo (10 nM final) were added to 384-well plates with a Biotek EL406 liquid handler. 100 nL of compounds from stock plates were added by pin transfer using a Janus Workstation (PerkinElmer), allowing the compounds to interact with c-Myc prior to c-Myc binding with Max. In the current assay, DMSO was not allowed to exceed 2% v/v of the assay. 10 μl of 2× master mix containing streptavidin-coated donor beads (25 μg/ml final) and his6-Max (1.25 nM final) were added. AlphaScreen measurements were performed on an Envision 2104 (PerkinElmer) utilizing the manufacturer's protocol. The assay can also be performed in 1536-plate format with 8 μL total volume using two 4 μL additions (instead of […] and 10 μL respectively).
Assays are performed with minor modifications from the manufacturer's protocol (PerkinElmer). Both master mixes were made in room temperature assay buffer (50 mM HEPES, 150 mM NaCl, 0.2% w/v BSA, 0.02% w/v Tween20, 40 μg/ml glycogen, 500 μM DTT, pH 8.0, DTT and glycogen added fresh). Alpha beads were added to respective master solutions and wrapped in foil. All subsequent steps were performed in low light conditions. Solution 1: 2× solution of components with final concentrations of cMyc (25 nM), Ni-coated Acceptor Bead (25 μg/ml), and biotinylated Ebox oligo (10 nM). Solution 2: 2× solution of streptavidin-coated donor beads (25 μg/ml final) and his6-Max (1.25 nM final). […] Solution 1 were added to 384-well plate (AlphaPlate-384, PerkinElmer) with Biotek EL406 liquid handler and the plates were centrifuged at 1000 rpm for 1 minute. 100 nL of compounds from stock plates were added by pin transfer using a Janus Workstation. 10 μL Solution 2 were added with the liquid handler. Plates were sealed with foil to block light exposure and prevent evaporation. Plates were centrifuged at 1000 rpm for 1 minute followed by 2 hour incubation. AlphaScreen measurements were performed on an Envision 2104 utilizing the manufacturer's protocol. Excitation was at 680 nm for donor bead release of singlet oxygen and emission was read with a bandpass filter from 520-620 nm. Glycogen: Roche Diagnostics #10901393001. Plate 1536: Perkin Elmer, 6004350. Plate 384: Perkin Elmer, 6005350. Nickel-His Alpha Beads: 6760619R.
In general terms: Bead proximity is the source of the signal in Alpha formats.

As usually defined, the EC50 is the concentration that produces a half-maximal response. Higher therefore signals lower potency in that assay. What is called IC50 is the point on the concentration scale where inhibition reaches its midpoint.

c-Myc/Max/Ebox DNA, sequence (P01106 16-454): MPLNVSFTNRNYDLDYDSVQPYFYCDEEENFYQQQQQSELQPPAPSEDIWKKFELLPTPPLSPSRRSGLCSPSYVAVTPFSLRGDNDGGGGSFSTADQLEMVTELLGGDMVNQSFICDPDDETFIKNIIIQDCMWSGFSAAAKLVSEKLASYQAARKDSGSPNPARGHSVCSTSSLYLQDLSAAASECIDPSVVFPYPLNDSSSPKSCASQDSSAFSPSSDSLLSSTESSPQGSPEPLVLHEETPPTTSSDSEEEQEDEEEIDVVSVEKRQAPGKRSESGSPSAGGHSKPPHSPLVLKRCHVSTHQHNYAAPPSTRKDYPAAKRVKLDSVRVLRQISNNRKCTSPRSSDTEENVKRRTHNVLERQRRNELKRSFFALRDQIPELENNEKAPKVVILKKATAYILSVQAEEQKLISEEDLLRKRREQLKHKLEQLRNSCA

Regarding `CC(=O)OCOC(=O)c1ccc(C(=O)N/N=C/c2c(CO)cnc(C)c2O)cc1-n1c(C)ccc1C` [Compound 111], the EC50 with MM1S cells (Homo sapiens, MM1.S, 72 h) is 21.8 µM; with H2171 cells (Homo sapiens, NCI-H2171, 72 h), 2.4 µM.

On to `CC(=O)OCOC(=O)c1ccc(C(=O)N/N=C/c2ccc(S(=O)(=O)O)o2)cc1-n1c(C)ccc1C` [Compound 112], for which the EC50 is 9.25 µM in the test with MM1S cells (Homo sapiens, MM1.S, 72 h) and 1.04 µM in the test with H2171 cells (Homo sapiens, NCI-H2171, 72 h).

Take `CC(=O)OCOC(=O)c1ccc(-n2c(C)ccc2C)cc1O` [Compound 113]: the values for the EC50 with MM1S cells and in the test with H2171 cells were 11 µM and 2.8 µM, respectively.

Consider `CC(=O)OCOC(=O)c1cccc(/C=N/NC(=O)c2ccc(C(=O)OCOC(C)=O)c(-n3c(C)ccc3C)c2)c1` [Compound 114], for which the EC50 came to 11.7 µM with MM1S cells (Homo sapiens, MM1.S, 72 h) and 1.21 µM in the test on H2171 cells (Homo sapiens, NCI-H2171, 72 h).

For the molecule `CC(=O)OCOC(=O)c1ccc(C(=O)N/N=C/c2ccc3cccnc3n2)cc1-n1c(C)ccc1C` [Compound 115], the EC50 with MM1S cells (Homo sapiens, MM1.S, 72 h) was 13.6 µM; with H2171 cells (Homo sapiens, NCI-H2171, 72 h), 0.913 µM.

With `Cc1ccc(C)n1-c1cc(C(=O)N/N=C\c2ccc(C(=O)O)s2)ccc1C(=O)O` [Compound 122], the IC50 at c-Myc/Max/Ebox DNA is 0.492 µM. The same molecule showed an EC50 in the test with H2171 cells (Homo sapiens, NCI-H2171, 72 h) of 174 µM.

As to `Cc1ccc(C)n1-c1cc(C(=O)N/N=C\c2ccc(S(=O)(=O)O)cc2)ccc1C(=O)O` [Compound 123], on c-Myc/Max/Ebox DNA, the IC50 is 0.291 µM. For the same molecule, in the test with H2171 cells (Homo sapiens, NCI-H2171, 72 h), the EC50 was 96.4 µM.

Consider `COc1cc(-n2c(C)ccc2C)c(Cl)cc1C(=O)O` [Compound 131], for which, on c-Myc/Max/Ebox DNA, the IC50 is 493 µM. This molecule came in with an EC50 in the test on H2171 cells (Homo sapiens, NCI-H2171, 72 h) of 3400 µM.

For the molecule `Cc1ccc(C)n1-c1c(C(=O)O)cccc1[N+](=O)[O-]` [Compound 132], the EC50 worked out at 647 µM with MM1S cells (Homo sapiens, MM1.S, 72 h) and 310 µM in the test with H2171 cells (Homo sapiens, NCI-H2171, 72 h).

On to `Cc1ccc(C)n1-c1ccccc1C(N)=O` [Compound 133], for which it took 450 µM to reach a half-maximal effect in the test with MM1S cells (Homo sapiens, MM1.S, 72 h) (EC50).

As to `Cc1ccc(C)n1-c1cnccc1C(=O)O` [Compound 135], the IC50 at c-Myc/Max/Ebox DNA was found to be 6800 µM. In the test with MM1S cells (Homo sapiens, MM1.S, 72 h), this molecule gave an EC50 of 305 µM.

Consider `Cc1ccc(C)n1-c1cccc(C(=O)c2ccccc2)c1C(=O)O` [Compound 136], for which the IC50 at c-Myc/Max/Ebox DNA is 94.7 µM. This molecule displayed an EC50 in the test on H2171 cells (Homo sapiens, NCI-H2171, 72 h) of 215 µM.

`Cc1c(C)c(C)n(-c2ccccc2C(=O)O)c1C` [Compound 138]: the EC50 stood at 194 µM with MM1S cells (Homo sapiens, MM1.S, 72 h) and 270 µM with H2171 cells (Homo sapiens, NCI-H2171, 72 h).

As to `O=C(O)c1ccccc1-n1c2ccccc2c2ccccc21` [Compound 141], the EC50 with MM1S cells (Homo sapiens, MM1.S, 72 h) was found to be 148 µM; in the test on H2171 cells (Homo sapiens, NCI-H2171, 72 h) it was 268 µM.

Regarding `Cc1ccc(C)n1-c1cc(C(=O)NN)ccc1C(=O)O` [Compound 142], the IC50 on c-Myc/Max/Ebox DNA was found to be 7.58 µM. The molecule further registered an EC50 in the test with MM1S cells of 625 µM.

Molecule `CC(=O)OCOC(=O)c1ccc(-n2c(C)ccc2C)cc1O` [Compound 144] displayed an EC50 in the test on MM1S cells of 446 µM.

As to `Cc1ccc(C)n1-c1ccc(Cl)cc1C(=O)O` [Compound 147], the IC50 on c-Myc/Max/Ebox DNA stood at 11.5 µM. Moreover, the midpoint of the response in the test on H2171 cells (Homo sapiens, NCI-H2171, 72 h), the EC50, lay at 170 µM.

`CC(=O)OCOC(=O)c1ccccc1-n1ccnc1C` [Compound 151]: the EC50 was 156 µM in the test on MM1S cells (Homo sapiens, MM1.S, 72 h) and 43.5 µM in the test on H2171 cells (Homo sapiens, NCI-H2171, 72 h).

In the test on MM1S cells (Homo sapiens, MM1.S, 72 h), `Cc1ccc(C)n1-c1cc(C(=O)O)ccc1C(=O)O` [Compound 157] yielded a concentration giving a half-maximal response (EC50) of 11000 µM.

`Cc1ccc(C)n1-c1ccc(C(=O)O)c([N+](=O)[O-])c1` [Compound 163]: on c-Myc/Max/Ebox DNA, the IC50 turned out to be 155 µM. The molecule also yielded an EC50 with MM1S cells (Homo sapiens, MM1.S, 72 h) of 98.5 µM.

Turning to `CC(=O)OCOC(=O)c1cccc(/C=N/NC(=O)c2ccc(C(=O)OCOC(C)=O)c(-n3c(C)ccc3C)c2)c1` [acetomoxymethyl ester prodrug], the “cellular activity/potency in cellular proliferation assay” value in the test on MM1S cells (MM1.S, prodrug relative to free acid (FIG. 3, FIG. 4)) was “increases cellular potency”.
